Experimental data from ChEMBL document CHEMBL6078679, “Structure-Guided Discovery of Subtype Selective SIRT6 Inhibitors with a β-Carboline Skeleton for the Treatment of Breast Cancer” (J Med Chem, 2024).

Tests used:
[1] = target: T1, NAD-dependent protein deacetylase sirtuin-1 (Homo sapiens, UniProt Q96EB6); assay: Inhibition of SIRT1 (unknown origin) deacetylation activity using Boc-Lys(Ac)-AMC as substrate incubated for 2 hrs by BioTek microplate reader analysis
T1 sequence (Q96EB6 whole entry): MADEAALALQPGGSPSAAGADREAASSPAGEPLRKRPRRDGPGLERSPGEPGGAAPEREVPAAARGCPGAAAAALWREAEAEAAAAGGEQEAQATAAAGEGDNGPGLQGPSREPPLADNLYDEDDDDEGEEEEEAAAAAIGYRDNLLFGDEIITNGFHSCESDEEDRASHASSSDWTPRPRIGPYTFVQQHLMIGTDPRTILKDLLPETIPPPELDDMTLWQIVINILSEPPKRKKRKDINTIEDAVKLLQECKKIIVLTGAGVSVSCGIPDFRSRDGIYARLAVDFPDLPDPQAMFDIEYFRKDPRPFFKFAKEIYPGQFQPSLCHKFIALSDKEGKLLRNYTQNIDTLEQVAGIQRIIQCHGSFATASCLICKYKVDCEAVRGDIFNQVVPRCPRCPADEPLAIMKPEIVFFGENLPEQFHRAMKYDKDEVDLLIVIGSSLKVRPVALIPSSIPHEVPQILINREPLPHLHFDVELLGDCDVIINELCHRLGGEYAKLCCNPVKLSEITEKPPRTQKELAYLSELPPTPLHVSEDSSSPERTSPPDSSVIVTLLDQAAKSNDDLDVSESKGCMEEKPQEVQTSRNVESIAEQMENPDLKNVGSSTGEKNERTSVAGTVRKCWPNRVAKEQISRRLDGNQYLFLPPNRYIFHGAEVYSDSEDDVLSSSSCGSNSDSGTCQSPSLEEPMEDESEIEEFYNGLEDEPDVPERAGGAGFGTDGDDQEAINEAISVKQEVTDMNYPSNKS

[2] = target: T2, NAD-dependent protein deacetylase sirtuin-2 (Homo sapiens, UniProt Q8IXJ6); assay: Inhibition of SIRT2 (unknown origin) deacetylation activity using Boc-Lys(Ac)-AMC as substrate incubated for 2 hrs by BioTek microplate reader analysis
T2 sequence (Q8IXJ6 whole entry): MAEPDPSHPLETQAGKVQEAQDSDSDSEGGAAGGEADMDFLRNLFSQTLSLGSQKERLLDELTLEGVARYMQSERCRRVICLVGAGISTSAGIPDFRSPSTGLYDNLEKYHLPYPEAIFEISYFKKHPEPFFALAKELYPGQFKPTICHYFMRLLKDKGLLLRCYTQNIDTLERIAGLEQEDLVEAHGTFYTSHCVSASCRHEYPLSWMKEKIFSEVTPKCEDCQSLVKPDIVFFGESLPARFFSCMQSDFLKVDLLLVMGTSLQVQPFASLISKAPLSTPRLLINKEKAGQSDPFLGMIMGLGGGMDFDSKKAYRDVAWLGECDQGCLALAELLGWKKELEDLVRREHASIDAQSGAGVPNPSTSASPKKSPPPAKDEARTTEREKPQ

[3] = target: T3, NAD-dependent protein lipoamidase sirtuin-4, mitochondrial (Homo sapiens, UniProt Q9Y6E7); assay: Inhibition of SIRT4 (unknown origin) deacetylation activity using Boc-Lys(Ac)-AMC as substrate incubated for 2 hrs by BioTek microplate reader analysis
T3 sequence (Q9Y6E7 whole entry): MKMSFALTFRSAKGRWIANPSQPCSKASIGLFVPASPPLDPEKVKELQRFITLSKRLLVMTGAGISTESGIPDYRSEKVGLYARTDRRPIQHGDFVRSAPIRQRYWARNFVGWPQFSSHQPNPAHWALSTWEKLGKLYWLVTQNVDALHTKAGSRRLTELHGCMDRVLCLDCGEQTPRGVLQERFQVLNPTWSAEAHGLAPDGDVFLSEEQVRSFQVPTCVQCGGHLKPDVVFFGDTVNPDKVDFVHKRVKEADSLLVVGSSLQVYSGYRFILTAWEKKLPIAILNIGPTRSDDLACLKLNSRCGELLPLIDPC

[4] = target: NAD-dependent protein deacylase sirtuin-5, mitochondrial (Homo sapiens, UniProt Q9NXA8); assay: Inhibition of SIRT5 (unknown origin) deacetylation activity using Boc-Lys(Ac)-AMC as substrate incubated for 2 hrs by BioTek microplate reader analysis
Chain of NAD-dependent protein deacylase sirtuin-5, mitochondrial (Q9NXA8 whole entry): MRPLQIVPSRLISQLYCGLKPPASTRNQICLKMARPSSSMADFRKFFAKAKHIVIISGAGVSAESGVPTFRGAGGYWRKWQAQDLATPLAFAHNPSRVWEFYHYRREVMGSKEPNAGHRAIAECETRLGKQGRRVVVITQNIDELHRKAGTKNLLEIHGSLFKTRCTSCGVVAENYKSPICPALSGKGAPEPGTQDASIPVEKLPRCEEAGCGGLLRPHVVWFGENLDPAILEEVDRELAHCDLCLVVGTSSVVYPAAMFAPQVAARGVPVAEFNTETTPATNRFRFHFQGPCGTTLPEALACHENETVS

[5] = target: T4, NAD-dependent protein deacetylase sirtuin-7 (Homo sapiens, UniProt Q9NRC8); assay: Inhibition of SIRT7 (unknown origin) deacetylation activity using Boc-Lys(Ac)-AMC as substrate incubated for 2 hrs by BioTek microplate reader analysis
T4 sequence (Q9NRC8 whole entry): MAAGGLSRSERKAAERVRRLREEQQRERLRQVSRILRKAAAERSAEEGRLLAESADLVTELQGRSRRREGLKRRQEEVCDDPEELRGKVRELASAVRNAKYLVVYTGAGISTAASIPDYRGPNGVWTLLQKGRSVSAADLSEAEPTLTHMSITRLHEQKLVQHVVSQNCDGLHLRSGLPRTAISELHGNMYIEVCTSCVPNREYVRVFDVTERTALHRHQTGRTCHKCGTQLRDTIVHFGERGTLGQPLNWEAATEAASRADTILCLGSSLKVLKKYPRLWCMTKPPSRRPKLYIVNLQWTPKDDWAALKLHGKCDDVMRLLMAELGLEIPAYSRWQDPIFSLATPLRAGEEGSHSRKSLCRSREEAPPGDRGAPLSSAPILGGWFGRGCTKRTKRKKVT

[6] = target: T5, NAD-dependent protein deacetylase sirtuin-3, mitochondrial (Homo sapiens, UniProt Q9NTG7); assay: Inhibition of full length N-terminal his-tagged SIRT3 (unknown origin) deacetylation activity expressed in Escherichia coli BL21 (DE3) using RHKK-Ac-AMC as substrate incubated for 2 hrs by FDL analysis relative to control
T5 sequence (Q9NTG7 whole entry): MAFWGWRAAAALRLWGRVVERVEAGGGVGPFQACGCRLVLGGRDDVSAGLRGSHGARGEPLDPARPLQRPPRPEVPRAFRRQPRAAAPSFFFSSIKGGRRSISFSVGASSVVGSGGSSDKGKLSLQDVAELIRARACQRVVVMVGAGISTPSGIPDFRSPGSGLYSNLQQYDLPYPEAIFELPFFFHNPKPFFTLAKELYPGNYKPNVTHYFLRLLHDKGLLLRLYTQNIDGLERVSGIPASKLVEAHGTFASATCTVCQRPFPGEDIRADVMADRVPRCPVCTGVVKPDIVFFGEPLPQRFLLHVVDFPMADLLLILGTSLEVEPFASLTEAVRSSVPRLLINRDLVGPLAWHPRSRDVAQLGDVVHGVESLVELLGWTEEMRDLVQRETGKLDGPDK

Row | IC50 [1] [µM] | IC50 [2] [µM] | IC50 [3] [µM] | IC50 [4] [µM] | IC50 [5] [µM] | Structure (SMILES) | IC50 [6] [µM]
1 | 312 | 157 | 274 | > 500 | > 500 | N#Cc1ccc(Cn2c3ccc(Cl)cc3c3cc(C(=O)NCc4ccccn4)ncc32)cc1 | 
2 |  |  |  |  |  | COC(=O)c1cc2c(cn1)[nH]c1ccccc12 [BETA-CCM] | > 100
3 |  |  |  |  |  | CC(/C=C/C(=O)NO)=C\[C@@H](C)C(=O)c1ccc(N(C)C)cc1 [TRICHOSTATIN] | 7.88
